Test results reported in patent publication US20110143948A1, “MOLECULAR SIGNATURES AND BIOMARKERS ASSOCIATED WITH MELANOMA AND METHODS OF USE THEREOF” (priority 2008, published 2011).

Test system: ncRNAs (SEQ ID NO 28-89)
Test: ncRNA arrays of melanocytes, keratinocytes, normal skin, melanoma cell lines and patient samples
Parameters: species or system human
Settings: for ncRNA array expression, patient 2: melanoma patient 2 sample compared to normal skin; for ncRNA array expression, patient 3: melanoma patient 3 sample compared to normal skin; for ncRNA array expression, patient 4: melanoma patient 4 sample compared to normal skin; for ncRNA array expression, patient 5: melanoma patient 5 sample compared to normal skin; for ncRNA array expression, patient 6: melanoma patient 6 sample compared to normal skin; for ncRNA array expression, patient 7: melanoma patient 7 sample compared to normal skin; for ncRNA array expression, patient 8: melanoma patient 8 sample compared to normal skin; for ncRNA array expression, patient 9: melanoma patient 9 sample compared to normal skin; for ncRNA array expression, patient 10: melanoma patient 10 sample compared to normal skin; for ncRNA array expression, patient 19: melanoma patient 19 sample compared to normal skin; for ncRNA array expression, patient 20: melanoma patient 20 sample compared to normal skin; for ncRNA array expression, patient 21: melanoma patient 21 sample compared to normal skin; for ncRNA array expression, patient 22: melanoma patient 22 sample compared to normal skin; for ncRNA array expression, patient 23: melanoma patient 23 sample compared to normal skin; for ncRNA array expression, patient 24: melanoma patient 24 sample compared to normal skin; for ncRNA array expression, patient 25: melanoma patient 25 sample compared to normal skin; for ncRNA array expression, patient 26: melanoma patient 26 sample compared to normal skin; for ncRNA array expression, patient 27: melanoma patient 27 sample compared to normal skin; for ncRNA array expression, patient 28: melanoma patient 28 sample compared to normal skin; for ncRNA array expression, patient 29: melanoma patient 29 sample compared to normal skin; for ncRNA array expression, patient 30: melanoma patient 30 sample compared to normal skin
Outline: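 Total RNA from melanocytes, keratinocytes, normal human skin, melanoma cell lines and melanoma patient samples was profiled on an array of >10,000 putative (>200 nt) human and mouse ncRNAs plus RefSeq mRNA probes. Expression was compared with melanocytes or normal skin, keratinocyte signatures were subtracted, and hits were validated by qRT-PCR and Northern blot.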

Row | Substance | ncRNA array expression, patient 2 | ncRNA array expression, patient 3 | ncRNA array expression, patient 4 | ncRNA array expression, patient 5 | ncRNA array expression, patient 6 | ncRNA array expression, patient 7 | ncRNA array expression, patient 8 | ncRNA array expression, patient 9 | ncRNA array expression, patient 10 | ncRNA array expression, patient 19 | ncRNA array expression, patient 20 | ncRNA array expression, patient 21 | ncRNA array expression, patient 22 | ncRNA array expression, patient 23 | ncRNA array expression, patient 24 | ncRNA array expression, patient 25 | ncRNA array expression, patient 26 | ncRNA array expression, patient 27 | ncRNA array expression, patient 28 | ncRNA array expression, patient 29 | further results
1 | SEQ ID NO 44 (AGCCAACTCACGCTTAGGGAGAACTCATACCGCCTAAATATAAAGGCAATTATATATATA; listed as DNA, chemistry not given here; listed as Homo sapiens) | −1.843 | −1.705 | −1.679 | −1.807 | −1.08 | −1.932 | −2.019 | −1.861 | −0.3103 | −1.83 | −1.651 | −1.7 | −1.029 | −1.95 | −1.768 | −1.979 | −1.501 | −1.744 | −1.679 | −1.809 | ncRNA array expression, patient 30: 0.9814
2 | SEQ ID NO 45 (ATTTAGAGAACATTTAAATCTGTAAGGAAGAAAATAATAACGACTCACAATTACATCATT; listed as DNA, chemistry not given here; listed as Homo sapiens) | −1.688 | −1.56 | −1.5912 | −1.519 | −0.7528 | −0.8782 | −2.042 | −1.8261 | 1.065 | −0.8583 | −1.797 | −1.759 | −1.25 | 0.2281 | −1.588 | −2.096 | −2.174 | −1.86 | −2.069 | −1.422 | ncRNA array expression, patient 30: 0.8792
3 | SEQ ID NO 46 (CTATTGGAGTGCATATAAATTCTTGATAGCACCAGTTCTCAAATATGAGGTGTTAAAAAC; listed as DNA, chemistry not given here; listed as Homo sapiens) | 0.198 | 0.6718 | 1.187 | 0.9853 | 0.04368 | 0.7142 | 1.688 | 5.175 | 1.916 | 2.172 | 0.395 | 0.7531 | −0.4275 | 0.6081 | 0.8675 | 1.428 | 2.919 | 1.824 | 1.253 | 2.278 | ncRNA array expression, patient 30: 0.4452
